Measured values from article PMC7023430, “4-Aminobenzoic Acid Derivatives: Converting Folate Precursor to Antimicrobial and Cytotoxic Agents” (Biomolecules, 2019).
≈ marks a conversion by molar mass, not a printed value. Read-outs that look alike come from different tables or passages of the source.

Key:
[1] = system: Staphylococcus aureus ATCC 29213, CCM 4223; assay: Antibacterial microdilution broth method, S. aureus; format: cell-based
[2] = system: Staphylococcus epidermidis H 6966/08; assay: Antibacterial microdilution broth method, S. epidermidis; format: cell-based; conditions: Staphylococcus epidermidis, H6966/08, S. epidermidis
[3] = system: Enterococcus faecalis ATCC 29212, CCM 4224; assay: Antibacterial microdilution broth method, E. faecalis; format: cell-based; conditions: Enterococcus faecalis
[4] = system: Escherichia coli ATCC 25922, CCM 3954; assay: Antibacterial microdilution broth method, E. coli; format: cell-based; conditions: Escherichia coli
[5] = system: Pseudomonas aeruginosa ATCC 27853, CCM 3955; assay: Antibacterial microdilution broth method, P. aeruginosa; format: cell-based; conditions: Pseudomonas aeruginosa, P. aeruginosa
[6] = system: Mycobacterium tuberculosis H37Rv (331/88); assay: Antimycobacterial micromethod in Šula's medium, M. tuberculosis; format: cell-based
[7] = system: Mycobacterium avium 330/88; assay: Antimycobacterial micromethod in Šula's medium, M. avium; format: cell-based
[8] = system: M. kansasii 6509/96 (clinical isolate); assay: Antimycobacterial micromethod in Šula's medium, M. kansasii 6509/96; format: cell-based; conditions: Mycobacterium kansasii
[9] = system: Candida albicans ATCC 44859; assay: Antifungal microdilution broth method, C. albicans; format: cell-based
Summary of the method: (§1)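 Panel covers five yeasts and three filamentous fungi tested by a slightly modified EUCAST microdilution protocol. Growth medium is glucose-supplemented (2%) RPMI-1640 with L-glutamine at pH 7.0 (MOPS). Endpoints are judged visually from duplicate runs.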

[10] = system: Candida tropicalis 156; assay: Antifungal microdilution broth method, C. tropicalis; format: cell-based
Summary of the method: as §1

[11] = system: Candida krusei E28; assay: Antifungal microdilution broth method, C. krusei; format: cell-based; conditions: Pichia kudriavzevii
Summary of the method: as §1

[12] = system: Trichosporon asahii 1188; assay: Antifungal microdilution broth method, T. asahii; format: cell-based
Summary of the method: as §1

[13] = system: Aspergillus fumigatus 231; assay: Antifungal microdilution broth method, A. fumigatus; format: cell-based
Summary of the method: as §1

[14] = system: Lichtheimia corymbifera 272; assay: Antifungal microdilution broth method, L. corymbifera; format: cell-based
Summary of the method: as §1

[15] = system: Trichophyton interdigitale 445; assay: Antifungal microdilution broth method, T. interdigitale; format: cell-based
Summary of the method: as §1

[16] = system: HepG2 cells; assay: Cytotoxicity, CellTiter 96 assay; format: cell-based, human; conditions: Homo sapiens, HepG2, 24 h, 24 h incubation
Summary of the method: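 HepG2 cells (10,000/well) exposed 24 h at 37 °C, 5% CO2 to compounds in DMSO (≤1% v/v final), triplicates. Viability by tetrazolium-to-formazan reduction (CellTiter 96 AQueous One), absorbance 490 nm after 2 h. IC50 from nonlinear regression versus untreated controls; 10% DMSO defined 0% viability.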

[17] = system: ESBL-positive Klebsiella pneumoniae J 14368/08
[18] = 24 h incubation, read-out: MIC SA 24 h
[19] = 48 h incubation, read-out: MIC SA 48 h
[20] = 24 h incubation, read-out: MIC SE 24 h
[21] = 48 h incubation, read-out: MIC SE 48 h
[22] = 24 h incubation, read-out: MIC EF 24 h
[23] = 48 h incubation, read-out: MIC EF 48 h
[24] = 24 h incubation, read-out: MIC EC 24 h
[25] = 48 h incubation, read-out: MIC EC 48 h
[26] = 24 h incubation, read-out: MIC PA 24 h
[27] = 48 h incubation, read-out: MIC PA 48 h
[28] = 336 h, 14 days incubation at 37 °C, read-out: MIC Mtb. 331/88 14 d
[29] = 504 h, 21 days incubation at 37 °C, read-out: MIC Mtb. 331/88 21 d
[30] = 330/88, 336 h, 14 days incubation at 37 °C, read-out: MIC M. avium 330/88 14 d
[31] = 330/88, 504 h, 21 days incubation at 37 °C, read-out: MIC M. avium 330/88 21 d
[32] = 168 h, 7 days incubation at 37 °C, read-out: MIC M. kansasii 6509/96 7 d
[33] = 336 h, 14 days incubation at 37 °C, read-out: MIC M. kansasii 6509/96 14 d
[34] = 504 h, 21 days incubation at 37 °C, read-out: MIC M. kansasii 6509/96 21 d
[35] = ATCC44859, 24 h, read-out: MIC CA 24 h
[36] = ATCC44859, 48 h, read-out: MIC CA 48 h

Row | SMILES | MIC [1, 18] | MIC [1, 19] | MIC [2, 20] | MIC [2, 21] | MIC [3, 22] | MIC [3, 23] | MIC [4, 24] | MIC [4, 25] | MIC [5, 26] | MIC [5, 27] | MIC [6, 28] | MIC [6, 29] | MIC [7, 30] | MIC [7, 31] | MIC [8, 32] | MIC [8, 33] | MIC [8, 34] | MIC [9, 35] | MIC [9, 36] | MIC ([10]; 24 h, read-out: MIC CT 24 h) | also measured
1 | O=C(O)c1ccc(N=Cc2cc(Cl)cc(I)c2O)cc1 [1p, 4-[(5-Chloro-2-hydroxy-3-iodobenzylidene)amino]benzoic acid] | 15.6 µM (≈ 6.27 µg/mL) | 15.6 µM (≈ 6.27 µg/mL) | 31.2 µM (≈ 12.5 µg/mL) | 31.2 µM (≈ 12.5 µg/mL) | 62.5 µM (≈ 25.1 µg/mL) | 62.5 µM (≈ 25.1 µg/mL) | 62.5 µM (≈ 25.1 µg/mL) | 62.5 µM (≈ 25.1 µg/mL) | > 500 µM | > 500 µM | 250 µM (≈ 100 µg/mL) | 250 µM (≈ 100 µg/mL) | 500 µM (≈ 201 µg/mL) | 1000 µM (≈ 402 µg/mL) | 250 µM (≈ 100 µg/mL) | 250 µM (≈ 100 µg/mL) | 500 µM (≈ 201 µg/mL) | 7.81 µM (≈ 3.14 µg/mL) | 7.81 µM (≈ 3.14 µg/mL) | 31.2 µM (≈ 12.5 µg/mL) | MIC ([10]; 48 h, read-out: MIC CT 48 h): 31.2 µM (≈ 12.5 µg/mL); MIC ([11]; 24 h, read-out: MIC CK 24 h): 15.6 µM (≈ 6.27 µg/mL); MIC ([11]; 48 h, read-out: MIC CK 48 h): 15.6 µM (≈ 6.27 µg/mL); MIC ([12]; 24 h, read-out: MIC TA 24 h): 7.81 µM (≈ 3.14 µg/mL); MIC ([12]; 48 h, read-out: MIC TA 48 h): 7.81 µM (≈ 3.14 µg/mL); MIC ([13]; 24 h, read-out: MIC AF 24 h): 125 µM (≈ 50.2 µg/mL); MIC ([13]; 48 h, read-out: MIC AF 48 h): 125 µM (≈ 50.2 µg/mL); MIC ([14]; 24 h, read-out: MIC LC 24 h): 250 µM (≈ 100 µg/mL); MIC ([14]; 48 h, read-out: MIC LC 48 h): 250 µM (≈ 100 µg/mL); MIC ([15]; 72 h, read-out: MIC TI 72 h): 7.81 µM (≈ 3.14 µg/mL); MIC ([15]; 120 h, read-out: MIC TI 120 h): 7.81 µM (≈ 3.14 µg/mL); IC50 [16]: 53.4 µM; MIC KP-E 24 h [17]: 125 µM (≈ 50.2 µg/mL); MIC KP-E 48 h [17]: 125 µM (≈ 50.2 µg/mL)
2 | O=C(O)c1ccc(N=Cc2cc(I)cc(I)c2O)cc1 [1q, 4-[(2-Hydroxy-3,5-diiodobenzylidene)amino]benzoic acid] | 62.5 µM (≈ 30.8 µg/mL) | 62.5 µM (≈ 30.8 µg/mL) | 62.5 µM (≈ 30.8 µg/mL) | 62.5 µM (≈ 30.8 µg/mL) | 500 µM (≈ 247 µg/mL) | 500 µM (≈ 247 µg/mL) | 500 µM (≈ 247 µg/mL) | 500 µM (≈ 247 µg/mL) | > 500 µM | > 500 µM | 250 µM (≈ 123 µg/mL) | 250 µM (≈ 123 µg/mL) | 500 µM (≈ 247 µg/mL) | 500 µM (≈ 247 µg/mL) | 250 µM (≈ 123 µg/mL) | 250 µM (≈ 123 µg/mL) | 250 µM (≈ 123 µg/mL) | 7.81 µM (≈ 3.85 µg/mL) | 7.81 µM (≈ 3.85 µg/mL) | 15.6 µM (≈ 7.7 µg/mL) | MIC ([10]; 48 h, read-out: MIC CT 48 h): 15.6 µM (≈ 7.7 µg/mL); MIC ([11]; 24 h, read-out: MIC CK 24 h): 31.2 µM (≈ 15.4 µg/mL); MIC ([11]; 48 h, read-out: MIC CK 48 h): 31.2 µM (≈ 15.4 µg/mL); MIC ([12]; 24 h, read-out: MIC TA 24 h): 15.6 µM (≈ 7.7 µg/mL); MIC ([12]; 48 h, read-out: MIC TA 48 h): 15.6 µM (≈ 7.7 µg/mL); MIC ([13]; 24 h, read-out: MIC AF 24 h): 125 µM (≈ 61.6 µg/mL); MIC ([13]; 48 h, read-out: MIC AF 48 h): 125 µM (≈ 61.6 µg/mL); MIC ([14]; 24 h, read-out: MIC LC 24 h): 250 µM (≈ 123 µg/mL); MIC ([14]; 48 h, read-out: MIC LC 48 h): 250 µM (≈ 123 µg/mL); MIC ([15]; 72 h, read-out: MIC TI 72 h): 7.81 µM (≈ 3.85 µg/mL); MIC ([15]; 120 h, read-out: MIC TI 120 h): 7.81 µM (≈ 3.85 µg/mL); IC50 [16]: 57.8 µM; MIC KP-E 24 h [17]: 500 µM (≈ 247 µg/mL); MIC KP-E 48 h [17]: 500 µM (≈ 247 µg/mL)
